Data as given in patent publication US20060057669A1, “Inactive transcription factor tif-ia and uses thereof” (priority 2002, published 2006).

Experiments:
TIF-IA = assay: Western blot of TIF-IA and Pol I in stimulated NIH3T3 cells; format: cell-based; details: 40 μM PD98059, 30 min
Protocol: Serum-starved NIH3T3 cells were stimulated for 30 min by 10% serum, 10 ng bFGF, 50 ng/ml EGF or 0.1 μM TPA in the absence or presence of 40 μM PD98059. A Western blot is shown with 50 μg lysate proteins and antibodies against unphosphorylated and phosphorylated ERK1/2 as well as Pol I (RPA116) and TIF-IA.
Similarly, the amount of both Pol I and TIF-IA remained the same in quiescent and serum-stimulated cells. On Western blots, TIF-IA from growing and quiescent cells appears as a closely spaced double-band (indicated by a dot and asterisk in FIG. 1B) that corresponds to differently phosphorylated forms of TIF-IA. After mitogenic stimulation, the faster migrating form was converted into the more slowly migrating TIF-IA moiety. The shift in electrophoretic mobility correlated with cellular pre-rRNA synthetic activity, i.e., was predominant 20-30 min after mitogenic stimulation and returned to normal levels after 2 hr. Activation of pre-rRNA synthesis and decrease in the electrophoretic mobility of TIF-IA was also observed after stimulation of quiescent cells with growth factors, e.g. bFGF, or EGF, or with the phorbol ester TPA (FIGS. 1C and D), a potent stimulus of the Ras-ERK pathway, through activation of protein kinase C.

Pol I = assay: Co-immunoprecipitation of Pol I with TIF-IA mutants from HEK293T cells; format: binding, human
Protocol: (B) A mutant that mimics phosphorylation of TIF-IA at S199 fails to interact with Pol I and TIF-IB. FLAG-tagged wild-type TIF-IA or the indicated point mutants were overexpressed in HEK293T cells and immunoprecipitated from cell lysates with anti-FLAG antibodies (M2 agarose). Co-precipitated Pol I and TIF-IB/SL1 were visualized on Western blots with anti-RPA116 and anti-TAFI110 antibodies.
Immunoprecipitations were carried out from human cells overexpressing FLAG-tagged TIF-IA. Cells were lysed in IP buffer, cleared by centrifugation at 10,000×g for 30 min, and the supernatants were incubated for 4 hr at 4° C. with anti-FLAG (M2) agarose (Sigma). To analyze the interaction of TIF-IA with TIF-IB/SL1, the immunoprecipitates were washed with IP buffer and TIF-IB/SL1 was visualized on immunoblots with α-TAFI110 antibodies. To monitor the interaction of TIF-IA with Pol I, the immunoprecipitates were washed with IP buffer containing 600 mM NaCl and Pol I was analyzed on Western blots using antibodies against the second largest subunit of Pol I (RPA116) or PAF67 (Seither et al., J. Biol. Chem. 382 (2001), 1163-1170).
Given the importance of mTOR-mediated alterations in the phosphorylation pattern on TIF-IA activity, one could predict that either phosphorylation of S199, dephosphorylation of S44 or both regulate the interaction of TIF-IA with the Pol I transcription apparatus. It was therefore examined whether the S→A or S→D point mutant(s) were capable of interacting with Pol I and/or TIF-IB/SL1. For this, TIF-IA was precipitated from cells overexpressing either FLAG-tagged wild-type TIF-IA or the respective S199 and S44 mutant(s), and co-precipitated Pol I and TIF-IB/SL1 were visualized on Western blots.

Pol I transcription = assay: Pol I reporter plasmid pMrl930-BH co-transfection in NIH3T3 cells, Northern blot; format: cell-based; details: 0.25, 0.5 or 1 μg expression vector
Protocol: (C) Phosphorylation by RSK is necessary and sufficient for enhancing TIF-IA activity in vivo. NIH3T3 cells were co-transfected with 3 μg pMrl930-BH and lor 2.5 μg of pMT2-HA-CA-RSK2 (lanes 2, 3). Transcripts from the reporter plasmid were monitored on Northern blots. An ethidium bromide stain of cellular 18S and 28S rRNA is shown below.
(C) Transcriptional activity of TIF-IAS44A in vivo. NIH3T3 cells were cotransfected with 2.5 μg Pol I reporter plasmid (pMrl930-BH) and 0.25, 0.5 or 1 μg of pcDNA3.1-TIF-IA (lanes 2-4), TIF-IAS44A (lanes 5-7). Transcripts from the reporter plasmid were monitored on Northern blots. The amount of cellular 18S and 28S rRNA is shown below.
NIH3T3, HEK293T and CLL39 cells were cultured in Dulbecco's modified Eagles medium (DMEM) supplemented with 10% fetal calf serum. Cells were transfected with 5 μg of DNA per 10^6 cells using the calcium phosphate DNA coprecipitation method. Total RNA was isolated after 48 h and analyzed on Northern blots as described (Voit et al., EMBO J. 18 (1999), 1891-1899). Cellular pre-rRNA levels were monitored by hybridization to antisense RNA complementary to the first 155 nucleotides of unprocessed 45S pre-RNA. Transcripts from the rDNA reporter plasmid were monitored by hybridization to a riboprobe that is complementary to pUC sequences inserted between the rDNA promoter and terminator sequences of pMrl930-BH. […]

Compound	effect on electrophoretic mobility shift of TIF-IA after stimulation (TIF-IA)	effect on the amount of Pol I and TIF-IA (TIF-IA)	interaction with Pol I (co-precipitated RPA116) (Pol I)	transcription of the Pol I reporter (Pol I transcription)
COc1cccc(-c2cc(=O)c3ccccc3o2)c1N [PD98059]	prevented the electrophoretic mobility shift of TIF-IA	does not affect the amount of Pol I and TIF-IA	–	–
TIF-IA: wild-type human transcription initiation factor TIF-IA, accession No. AJ272050	–	–	interacted with both Pol I and TIF-IB/SL1	enhanced transcription of the reporter
